Experimental data taken from PubChem BioAssay AID256 (DTP/NCI, 2004).
Inconclusive results and toxic doses are left out.

Tested on: CD2F1 mice, L1210 leukemia ip, survival T/C
Assay: NCI In Vivo Anticancer Drug Screen. Data for tumor model L1210 Leukemia (intraperitoneal) in CD2F1 (CDF1) mice
Details: higher = longer survival
Method in brief: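 Activity against a transplanted murine tumor was judged by comparing the compound group with a vehicle group. The outcome in the treated animals was divided by that in the controls.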

[1] = endpoint: mean survival time, dose: 100.0 mg/kg/injection, schedule: Q04DX003 (ip), vehicle: saline with Tween-80
[2] = endpoint: mean survival time, dose: 200.0 mg/kg/injection, schedule: Q04DX003 (ip), vehicle: saline with Tween-80
[3] = endpoint: mean survival time, dose: 400.0 mg/kg/injection, schedule: Q04DX003 (ip), vehicle: saline with Tween-80
[4] = endpoint: mean survival time, dose: 25.0 mg/kg/injection, schedule: Q04DX003 (ip), vehicle: saline with Tween-80
[5] = endpoint: mean survival time, dose: 50.0 mg/kg/injection, schedule: Q04DX003 (ip), vehicle: saline with Tween-80
[6] = endpoint: mean survival time, dose: 200.0 mg/kg/injection, schedule: Q04DX003 (ip), vehicle: saline
[7] = endpoint: mean survival time, dose: 400.0 mg/kg/injection, schedule: Q04DX003 (ip), vehicle: saline
[8] = endpoint: mean survival time, dose: 100.0 mg/kg/injection, schedule: Q01DX001 (ip), vehicle: saline
[9] = endpoint: mean survival time, dose: 200.0 mg/kg/injection, schedule: Q01DX001 (ip), vehicle: saline
[10] = endpoint: mean survival time, dose: 400.0 mg/kg/injection, schedule: Q01DX001 (ip), vehicle: saline

Cc1cccnc1NC1=NCCO1
T/C [1]: 101 % of control
T/C [2]: 98 % of control
T/C [3]: 98 % of control

CN=C(N)c1ccc(N=C(N)c2ccc(C(N)=Nc3ccc(C(N)=NC)cc3)cc2)cc1
T/C (endpoint: median survival time, dose: 3.75 mg/kg/injection, schedule: Q08HX018 (ip), vehicle: water): 117 % of control
T/C (endpoint: median survival time, dose: 10.0 mg/kg/injection, schedule: Q01DX001 (iv), vehicle: saline): 95 % of control
T/C (endpoint: median survival time, dose: 10.0 micrograms per hour, schedule: Q#X X001 (iv), vehicle: saline): 97 % of control

COC1=CC(=O)C=C(OC)C1=O
T/C (endpoint: mean survival time, dose: 4.0 mg/kg/injection, schedule: Q01DX009 (ip), vehicle: saline): 96 % of control
T/C (endpoint: mean survival time, dose: 8.0 mg/kg/injection, schedule: Q01DX009 (ip), vehicle: saline): 98 % of control
T/C (endpoint: mean survival time, dose: 16.0 mg/kg/injection, schedule: Q01DX009 (ip), vehicle: saline): 96 % of control

CC1=Nc2ccccc2N2C1=CC1=C(C(=O)c3cc4ccccc4cc3C1=O)C2C (stereo not given)
T/C (endpoint: mean survival time, dose: 12.5 mg/kg/injection, schedule: Q04DX003 (ip), vehicle: saline with Tween-80): 101 % of control
T/C [4]: 122 % of control
T/C [5]: 101 % of control
T/C [6]: 94 % of control
T/C [7]: 90 % of control

CC(=O)Nc1ccc(S(=O)(=O)/N=S(\C)c2ccc(C)cc2)cc1 (stereo not given)
T/C (endpoint: mean survival time, dose: 100.0 mg/kg/injection, schedule: Q01DX009 (ip), vehicle: Klucel (hydroxypropylcellulose) (HPC)): 95 % of control
T/C (endpoint: mean survival time, dose: 200.0 mg/kg/injection, schedule: Q01DX009 (ip), vehicle: Klucel (hydroxypropylcellulose) (HPC)): 89 % of control
T/C (endpoint: mean survival time, dose: 400.0 mg/kg/injection, schedule: Q01DX009 (ip), vehicle: Klucel (hydroxypropylcellulose) (HPC)): 91 % of control
T/C (endpoint: mean survival time, dose: 600.0 mg/kg/injection, schedule: Q01DX009 (ip), vehicle: Klucel (hydroxypropylcellulose) (HPC)): 92 % of control

[Cl][Pt+2][Cl].[NH-]CC1CCCC[N-]1 (stereo not given)
T/C (endpoint: mean survival time, dose: 6.25 mg/kg/injection, schedule: Q04DX003 (ip), vehicle: distilled water + Tween-80): 121 % of control
T/C (endpoint: mean survival time, dose: 12.5 mg/kg/injection, schedule: Q04DX003 (ip), vehicle: distilled water + Tween-80): 115 % of control
T/C (endpoint: mean survival time, dose: 25.0 mg/kg/injection, schedule: Q04DX003 (ip), vehicle: distilled water + Tween-80): 150 % of control
T/C (endpoint: mean survival time, dose: 50.0 mg/kg/injection, schedule: Q04DX003 (ip), vehicle: distilled water + Tween-80): 123 % of control
T/C (endpoint: mean survival time, dose: 200.0 mg/kg/injection, schedule: Q04DX003 (ip), vehicle: distilled water + Tween-80): 91 % of control
T/C (endpoint: median survival time, dose: 12.5 mg/kg/injection, schedule: Q04DX002 (ip), vehicle: saline): 168 % of control
T/C (endpoint: median survival time, dose: 25.0 mg/kg/injection, schedule: Q04DX002 (ip), vehicle: saline): 158 % of control

O=C1OC(=O)C2CCCC1C2
T/C [8]: 105 % of control
T/C [9]: 105 % of control
T/C [10]: 100 % of control

CCCCCCCCCCCCCCCC(=O)NCC[N+](C)(CC)CC
T/C (endpoint: mean survival time, dose: 75.0 mg/kg/injection, schedule: Q01DX001 (ip), vehicle: saline): 109 % of control

NC(=S)Nc1ccccn1
T/C [4]: 100 % of control
T/C [5]: 102 % of control
T/C [1]: 93 % of control

Cn1c(=O)c2c(ncn2CCSS(=O)(=O)O)n(C)c1=O
T/C (endpoint: mean survival time, dose: 12.5 mg/kg/injection, schedule: Q01DX005 (ip), vehicle: water): 100 % of control
T/C (endpoint: mean survival time, dose: 25.0 mg/kg/injection, schedule: Q01DX005 (ip), vehicle: water): 94 % of control
T/C (endpoint: mean survival time, dose: 50.0 mg/kg/injection, schedule: Q01DX005 (ip), vehicle: water): 102 % of control
T/C (endpoint: mean survival time, dose: 100.0 mg/kg/injection, schedule: Q01DX005 (ip), vehicle: water): 100 % of control
T/C (endpoint: mean survival time, dose: 200.0 mg/kg/injection, schedule: Q01DX005 (ip), vehicle: water): 98 % of control

CCOC(=O)C[Se]CC(=O)OCC
T/C (endpoint: mean survival time, dose: 100.0 mg/kg/injection, schedule: Q01DX001 (ip), vehicle: saline with Tween-80): 100 % of control
T/C (endpoint: mean survival time, dose: 200.0 mg/kg/injection, schedule: Q01DX001 (ip), vehicle: saline with Tween-80): 103 % of control

COc1ccc(/C=N/N=C(/C(=O)c2ccc(OC)cc2)c2ccc(OC)cc2)cc1
T/C [8]: 95 % of control
T/C (endpoint: mean survival time, dose: 100.0 mg/kg/injection, schedule: Q04DX003 (ip), vehicle: saline): 102 % of control
T/C [9]: 91 % of control
T/C [6]: 97 % of control
T/C [10]: 95 % of control
T/C [7]: 96 % of control

O=C(NN=C1CCCCC1)c1ccccc1
T/C (endpoint: mean survival time, dose: 100.0 mg/kg/injection, schedule: Q01DX009 (ip), vehicle: saline with Tween-80): 100 % of control
T/C [1]: 97 % of control
T/C (endpoint: mean survival time, dose: 200.0 mg/kg/injection, schedule: Q01DX009 (ip), vehicle: saline with Tween-80): 100 % of control
T/C [2]: 100 % of control
T/C [3]: 101 % of control
